Test results reported in patent US20120045500A1, “NOVEL DIOXO-IMIDAZOLIDINE DERIVATIVES, WHICH INHIBIT THE ENZYME SOAT-1, AND PHARMACEUTICAL AND COSMETIC COMPOSITIONS CONTAINING THEM” (GALDERMA RESEARCH & DEVELOPMENT, priority 2009, published 2012).
pIC50: −log10 of the molar value.

molecular target: T1, enzyme ACAT-1 (Homo sapiens, UniProt P35610); assay: HepG2 NBD-cholesterol fluorescence test for inhibitory activity towards the enzyme ACAT-1 (SOAT-1); format: cell-based; settings: not given
T1 construct: endogenous in cells; host or cells: HepG2
T1 sequence (P35610 1-550): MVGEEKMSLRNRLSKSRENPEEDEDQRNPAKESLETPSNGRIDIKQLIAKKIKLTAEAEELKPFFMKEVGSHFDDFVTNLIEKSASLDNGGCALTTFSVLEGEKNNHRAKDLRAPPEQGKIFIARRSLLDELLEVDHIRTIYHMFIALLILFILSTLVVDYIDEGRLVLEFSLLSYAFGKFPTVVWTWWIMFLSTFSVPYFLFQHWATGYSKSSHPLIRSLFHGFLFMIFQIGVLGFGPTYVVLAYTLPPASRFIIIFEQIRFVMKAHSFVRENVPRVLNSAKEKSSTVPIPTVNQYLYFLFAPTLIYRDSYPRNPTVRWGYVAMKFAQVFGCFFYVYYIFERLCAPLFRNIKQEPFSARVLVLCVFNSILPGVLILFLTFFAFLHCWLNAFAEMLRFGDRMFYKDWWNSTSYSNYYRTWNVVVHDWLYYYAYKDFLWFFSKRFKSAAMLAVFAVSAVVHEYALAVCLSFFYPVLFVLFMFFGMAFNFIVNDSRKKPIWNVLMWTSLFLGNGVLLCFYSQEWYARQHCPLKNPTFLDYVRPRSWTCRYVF
Procedure: The compounds (I) according to the invention, and also the pharmaceutically acceptable salts, solvates and/or hydrates thereof, have inhibitory properties on the enzyme SOAT-1. This inhibitory activity on the enzyme SOAT-1 is measured according to a HepG2 primary enzymatic test, as described in Example 15.
The compounds of formula (I) according to the invention were subjected to a test for evaluating their inhibitory activity towards the enzyme ACAT-1, inspired by the following publication: “Identification of ACAT1- and ACAT2-specific inhibitors using a novel, cell based fluorescence assay: individual ACAT uniqueness”, J. Lipid. Res. (2004) vol. 45, pages 378-386.
The principle of this test is based on the use of NBD-cholesterol, a cholesterol analogue whose fluorescence depends on its environment. When this molecule is in a polar environment, it is weakly fluorescent, whereas in a non-polar environment, it is strongly fluorescent. Free NBD-cholesterol becomes inserted in cell membranes and is weakly fluorescent in this polar environment. When NBD-cholesterol is esterified with ACAT, the NBD-cholesterol ester enters non-polar lipid droplets and is then strongly fluorescent.
The method below is applied: HepG2 cells are incubated in the presence of NBD-cholesterol (1 μg/ml) and of the test compound of formula (I) in black transparent-bottomed 96-well plates, at a rate of 30 000 cells per well. After incubation for 6 hours at 37° C. under 5% CO2, the medium is removed by turning upside-down and the cells are washed with twice 100 μl of PBS. After addition of 50 μl of lysis buffer (10 mM NaPO4, 1% Igepal), the plates are shaken for 5 minutes and the fluorescence is read (excitation at 490 nm, emission at 540 nm) on a Fusion machine (Perkin-Elmer).

Question: With `Cc1ccc(N2C(=O)N(CC(=O)Nc3c(C(C)C)cccc3C(C)C)C(=O)C23CCN(C(=O)c2ccccc2)CC3)cc1` [Compound 3, 2-(8-benzoyl-2,4-dioxo-1-p-tolyl-1,3,8-triazaspiro[4.5]dec-3-yl)-N-(2,6-diisopropylphenyl)acetamide] as the compound, how does the pIC50 read?
Answer: 7.07

Question: With `Cc1ccc(N2C(=O)N(CC(=O)Nc3c(C(C)C)cccc3C(C)C)C(=O)C23CCN(Cc2ccccc2)CC3)cc1` [Compound 4, 2-(8-benzyl-2,4-dioxo-1-p-tolyl-1,3,8-triazaspiro[4.5]dec-3-yl)-N-(2,6-diisopropylphenyl)acetamide] as the compound, how does the pIC50 read?
Answer: 8.24

Question: With `Cc1ccc(N2C(=O)N(CC(=O)Nc3c(C(C)C)cccc3C(C)C)C(=O)C23CCN(C)CC3)cc1` [Compound 5, N-(2,6-diisopropylphenyl)-2-(8-methyl-2,4-dioxo-1-p-tolyl-1,3,8-triazaspiro[4.5]dec-3-yl)acetamide] as the compound, how does the pIC50 read?
Answer: 7.70

Question: With `Cc1ccc(N2C(=O)N(CC(=O)Nc3c(C(C)C)cccc3C(C)C)C(=O)C23CCN(C(=O)OC(C)(C)C)CC3)cc1` [Compound 2, 3-[(2,6-diisopropylphenylcarbamoyl)methyl]-2,4-dioxo-1-p-tolyl-1,3,8-triazaspiro[4.5]decane-8-carboxylic acid tert-butyl ester] as the compound, how does the pIC50 read?
Answer: 7.54

Question: With `CC(=O)N1CCC2(CC1)C(=O)N(CC(=O)Nc1c(C(C)C)cccc1C(C)C)C(=O)N2c1ccc(C)cc1` [Compound 1, 2-(8-acetyl-2,4-dioxo-1-p-tolyl-1,3,8-triazaspiro[4.5]dec-3-yl)-N-(2,6-diisopropylphenyl)acetamide] as the compound, how does the pIC50 read?
Answer: 5.80

same assay, conditions: HepG2 cells, NBD-cholesterol 1 μg/ml, incubation 6 hours at 37° C., fluorescence read (490/540 nm); read-out: IC50

Question: With `Cc1ccc(N2C(=O)N(CC(=O)Nc3c(C(C)C)cccc3C(C)C)C(=O)C23CCC(F)(F)CC3)cc1` [Compound 8, 2-(8,8-difluoro-2,4-dioxo-1-p-tolyl-1,3-diazaspiro[4.5]dec-3-yl)-N-(2,6-diisopropylphenyl)acetamide] as the compound, how does the pIC50 read?
Answer: 8.82

Question: With `CCc1cccc(CC)c1NC(=O)CN1C(=O)N(c2ccc(C)cc2)C2(CCOCC2)C1=O` [Compound 11, N-(2,6-diethylphenyl)-2-(2,4-dioxo-1-p-tolyl-8-oxa-1,3-diazaspiro[4.5]dec-3-yl)acetamide] as the compound, how does the pIC50 read?
Answer: 8.03

Question: With `Cc1ccc(N2C(=O)N(CC(=O)Nc3c(C(C)C)cccc3C(C)C)C(=O)C23CCSCC3)cc1` [Compound 7, N-(2,6-diisopropylphenyl)-2-(2,4-dioxo-1-p-tolyl-8-thia-1,3-diazaspiro[4.5]dec-3-yl)acetamide] as the compound, how does the pIC50 read?
Answer: 8.74

Question: With `Cc1ccc(N2C(=O)N(CC(=O)Nc3c(C(C)C)cccc3C(C)C)C(=O)C23CCC(O)CC3)cc1` (stereo not drawn) [Compound 6, N-(2,6-Diisopropylphenyl)-2-(8-hydroxy-2,4-dioxo-1-p-tolyl-1,3-diazaspiro[4.5]dec-3-yl)acetamide] as the compound, how does the pIC50 read?
Answer: 8.19

Question: With `Cc1ccc(N2C(=O)N(CC(=O)Nc3c(C(C)C)cccc3C(C)C)C(=O)C23CCOCC3)cc1` [Compound 9, N-(2,6-diisopropylphenyl)-2-(2,4-dioxo-1-p-tolyl-8-oxa-1,3-diazaspiro[4.5]dec-3-yl)acetamide] as the compound, how does the pIC50 read?
Answer: 9.40

tested on: not given; assay: not given; settings: not given

Question: For `Cc1ccc(N2C(=O)N(CC(=O)Nc3c(C(C)C)cccc3C(C)C)C(=O)C23CCC(O)CC3)cc1` (stereo not drawn) [Compound 6, N-(2,6-Diisopropylphenyl)-2-(8-hydroxy-2,4-dioxo-1-p-tolyl-1,3-diazaspiro[4.5]dec-3-yl)acetamide], which melting point is on record?
Answer: 142 to 144 °C

Question: For `CC(=O)N1CCC2(CC1)C(=O)N(CC(=O)Nc1c(C(C)C)cccc1C(C)C)C(=O)N2c1ccc(C)cc1` [Compound 1, 2-(8-acetyl-2,4-dioxo-1-p-tolyl-1,3,8-triazaspiro[4.5]dec-3-yl)-N-(2,6-diisopropylphenyl)acetamide], which melting point is on record?
Answer: 136 to 138 °C
